Like-named read-outs stand apart in the source and are kept apart here.
What was measured:
[1] = tested on: embryonic cell line BME26; test: Phenotypic screening on BME26 cell cultures (MTT viability); assay type: cell-based, R. microplus; conditions: for inhibition at 100 µM: read-out: % of Growth Inhibition
Description: The embryonic cell line BME26 from R. microplus (Centro de Biotecnologia, Universidade Federal do Rio Grande do Sul, Porto Alegre, RS, Brazil) was grown as adherent monolayers in a complete medium, as described previously, which consisted of L-15B300 medium supplemented with 5% heat-inactivated Fetal Bovine Serum (FBS) (Gibco Co., Grand Island, NY), 10% Tryptose Phosphate Broth (TPB) (BD), penicillin (100 U/mL), streptomycin ([…], Gibco Co., Grand Island, NY, USA), and 0.1% bovine lipoprotein concentrate (ICN), (pH 7.2). The suspension of embryonic BME26 cells from R. microplus was seeded into 24-well plates (5 × 10^5 cells/well) to a final volume of 500 μL in a complete medium, and allowed to attach. After 24 h incubation at 34 °C, the extracts (100 µg/mL final concentration) and the compounds were added to the final concentrations indicated (1–100 µM), and 0.05% dimethylsulfoxide (DMSO) was used in the negative control wells. After 24 h of treatment, 50 μL of 3-(4,5-dimethylthiazol-2-yl)-2,5-diphenyltetrazolium bromide (MTT) prepared in serum-free medium (5 mg/mL) was added to each well. The media were discarded after 2 additional hours of incubation, and 1 mL of acid-isopropyl alcohol (0.15% HCl in isopropyl alcohol) was added to dissolve the formazan crystals. The mixture was transferred to 1.5 mL tubes, centrifuged at 6000× g for 15 min, and the clear supernatant was collected in new tubes for absorbance measurement at 570 nm using quartz cuvettes in a UVmini-1240 UV–vis spectrophotometer (Shimadzu, Japan). Absorbance values of the control treatment were used for normalization (100% viability). The activity was determined by analysis using OriginLab8.5® sigmoidal regression (% of viable cells compared to the logarithm of the compound concentration). The half-maximal inhibitory concentration (IC50), defined as the drug concentration at which 50% of the cells were viable relative to the control (no drug added), was used as a measurement of activity. These experiments were performed in triplicate for each compound.

[2] = tested on: R. microplus; test: Acaricidal activity on R. microplus (LIT and AIT, overall statement); assay type: in vivo; conditions: LIT 1 mM and AIT 1.5 mM
Description: After immersion, the fully engorged females were lightly dried with absorbent paper. […] The tubes carrying the eggs were closed with hydrophilic cotton, and were returned to the incubator chamber under the same conditions until the eggs hatched. The reproductive efficacy, as well as % control of each compound on R. microplus, was calculated according to published reports. The results were verified in two independent experiments. This assay was performed based on the method of Castro-Janer et al., 2011. […] The tubes were incubated in the same conditions as described above. The larvae were ready for testing after 14 to 21 days from egg-hatching. For the test, the compounds were diluted in DMSO, and were later resuspended in distilled water, always using 15% DMSO of the final solution volume. […] For the immersion procedure, tubes containing the larvae were placed vertically, without the cotton plug, and the larvae were taken with a brush from the top of the tube, ensuring they were viable. A cluster with a diameter of 2 mm of larvae was collected with a brush, and was later immersed in each solution, as well as in both control solutions, for 10 min. After this time, the solutions were drained, and the larvae were placed in 8.5 cm × 7.5 cm Whatman No. 1 filter papers. The filters were folded in the middle of the 8.5 cm side, and closed with 3 bulldog clips, forming packets. These packets were incubated for 24 h, under the same conditions as described previously, and then the percent of mortality was determined, considering it as the % of the control.

[3] = tested on: J774.1 murine macrophages; test: Cytotoxicity assay on murine macrophages (MTT); assay type: cell-based; conditions: Mus musculus; for IC50: J774.1, 48 h, read-out: IC50 (µM) Mammalian Cells; for EC50: J774.1, cytotoxicity, read-out: EC50 (µM) for Mammalian Cells
Description: J774.1 murine macrophages (ATCC, Rockville, MD, USA) were grown in a DMEM culture medium containing 4 mM L-glutamine, and supplemented with 10% FCS. The cells were seeded into a 96-well plate (5 × 10^4 cells in 200 µL culture medium) and incubated at 37 °C in a 5% CO2 atmosphere for 48 h, to allow cell adhesion before drug testing. Afterward, the cells were exposed for 48 h to the compounds (25–400 μM) or the vehicle (0.4% DMSO), and additional controls (cells in medium) were used in each test. Cell viability was then assessed by measuring the mitochondria-dependent reduction of MTT to formazan: for this, MTT in sterile PBS (0.2% glucose), pH 7.4, was added to the macrophages, to a final concentration of 0.1 mg/mL, and the cells were then incubated at 37 °C for 3 h. After removing the medium, the formazan crystals were dissolved in 180 μL of DMSO and 20 μL of MTT buffer (0.1 M glycine, 0.1 M NaCl, 0.5 mM EDTA, pH 10.5), and the absorbance was measured at 560 nm. The IC50 was defined as the drug concentration at which 50% of the cells were viable, relative to the control (no drug added), and was determined by analysis using OriginLab 8.5 Corporation, Northampton, MA, USA, sigmoidal regression (% of viable cells compared to the logarithm of the compound concentration). The tests were performed in triplicate in two independent experiments.

[4] = tested on: fully engorged females of the Mozo susceptible strain of R. microplus; test: Adult Immersion Test (AIT); assay type: in vivo; conditions: compounds 1.5 mM, 15 min immersion, 14 days
Description: This essay was performed based on Drummond et al., 1973, as each group of 5 fully engorged females of the Mozo susceptible strain of R. microplus was immersed in 50 mL tubes containing 10 mL of compounds at different concentrations (0.5, 1, 1.5, 2, 3.5 mM) for 15 min in four replicates. Four negative control groups were used (DMSO 10%). After immersion, the fully engorged females were lightly dried with absorbent paper. They were then placed in 100 mm disposable Petri dishes with their respective identification, and immediately incubated at 27 °C in an atmosphere with relative humidity (RH) of 85-90% for 14 days. […] The tubes carrying the eggs were closed with hydrophilic cotton, and were returned to the incubator chamber under the same conditions until the eggs hatched. The reproductive efficacy, as well as % control of each compound on R. microplus, was calculated according to published reports. The results were verified in two independent experiments.

[5] = target: R. microplus triosephosphate isomerase (RmTIM) (Rhipicephalus microplus, UniProt A8B3A8); test: biochemical; conditions: for IC50: RmTIM; for inhibition at 10 µM / inhibition at 100 µM: 1 h incubation, read-out: % Inhibition of Enzymatic Activity of RmTIM
Description: (§1) R. microplus triosephosphate isomerase (RmTIM) and Homo sapiens triosephosphate isomerase (HsTIM) were expressed in Escherichia coli, and purified as previously described in the literature. Protein concentration was determined by absorbance measurements at 280 nm for RmTIM (ε = 33440 M^−1cm^−1) and HsTIM (ε = 33460 M^−1cm^−1). Enzymatic activity was determined following the reaction of the conversion of glyceraldehyde-3-phosphate to dihydroxyacetone phosphate in a coupled enzyme assay using α-glycerol-phosphate dehydrogenase. The decrease in absorbance at 340 nm was recorded in a multiplate reader Varioskan™ Flash Multimode Reader (Thermo Scientific^TM, Waltham, MA, USA) at 25 °C. The reaction mixture ([…], pH 7.4) contained 100 mM triethanolamine, 10 mM EDTA, 0.2 mM NADH, 1 mM glyceraldehyde-3-phosphate, and 0.9 units of α-glycerol-phosphate dehydrogenase. The reaction was initiated by the addition of 5 ng/mL of the TIM of interest. For the inhibition studies (incubation mixture), TIM was incubated at a concentration of 5 mg/mL in a buffer of pH 7.4 containing 100 mM triethanolamine, 10 mM EDTA, and 10% DMSO at 25 °C for 1 h. The mixture also contained the compounds, dissolved in DMSO, at final concentrations of 10 and 100 μM. After 1 h, 10 μL of the incubation mixture was added to the reaction mixture, to a final volume of 100 μL in a 96-well plate. None of the molecules tested here affected the activity of α-glycerol-phosphate dehydrogenase (checked in situ on the reaction mixture inhibited, with the addition of fresh α-glycerol-phosphate dehydrogenase and running the measurement again). The IC50 value was taken as the concentration of drug needed to reduce the enzymatic activity by 50%, and was analyzed using OriginLab 8.5 Corporation, Northampton, MA, USA, sigmoidal regression (% of enzymatic activity vs. the logarithm of the compound concentration). The tests were performed in triplicate in two independent experiments.

[6] = target: T1, Homo sapiens triosephosphate isomerase (HsTIM) (Homo sapiens, UniProt P60174); test: Enzymatic activity of TIM, coupled enzyme assay; assay type: biochemical
T1 construct: made in house; host or cells: Escherichia coli
Description: as §1

[7] = BME26 cells, 24 h, MTT, read-out: IC50
[8] = synthetic compounds at 100 μM, BME26, 24 h

Sequence of R. microplus triosephosphate isomerase (RmTIM) (A8B3A8 entry or part of it): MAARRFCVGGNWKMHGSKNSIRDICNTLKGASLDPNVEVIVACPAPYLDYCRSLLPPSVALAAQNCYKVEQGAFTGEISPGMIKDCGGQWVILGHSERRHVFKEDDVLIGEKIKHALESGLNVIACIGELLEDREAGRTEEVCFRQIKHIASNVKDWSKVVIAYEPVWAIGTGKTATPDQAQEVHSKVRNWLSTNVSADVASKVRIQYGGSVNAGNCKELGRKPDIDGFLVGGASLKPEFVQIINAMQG
T1 sequence (P60174 whole entry): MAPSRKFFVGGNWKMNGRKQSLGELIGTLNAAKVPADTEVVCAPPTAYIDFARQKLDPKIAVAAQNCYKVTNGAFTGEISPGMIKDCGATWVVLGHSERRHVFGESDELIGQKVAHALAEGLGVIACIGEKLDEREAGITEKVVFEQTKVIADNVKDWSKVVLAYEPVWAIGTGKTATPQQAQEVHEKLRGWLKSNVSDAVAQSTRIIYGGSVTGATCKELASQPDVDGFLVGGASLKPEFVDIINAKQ

SMILES | IC50 [1, 7] | inhibition at 100 µM [1, 8] | acaricidal activity (in words) [2] | IC50 [3] | other results
C=CCn1c(-c2ccc(Cl)cc2)cs\c1=N/N=C/C=C/c1ccco1 [compound 266] | > 100 µM | 77% | acaricidal potential against R. microplus similar to Amitraz | > 50 µM | 
CC(/C=C/C(=O)/C=C/C(C)=C/c1ccco1)=C\c1ccco1 [compound 809] | > 100 µM | 50% |  | > 50 µM | 
O=C(/C=C/c1ccco1)/C=C/c1ccco1 [compound 795] | 20 ± 3 µM | 80% | acaricidal potential | > 50 µM | % of Mortality AIT [4]: 70 ± 7%
Nc1ccc2c(c1)[n+]([O-])c1cc(Br)ccc1[n+]2[O-] [compound 181] |  | 90% |  | < 25 µM | 
COc1ccc(/C=C/c2ccc3no[n+]([O-])c3c2)cc1 [compound 1404] |  |  | did not show reproducible acaricidal activity |  | IC50 ([5]; read-out: IC50): < 10 µM; inhibition at 10 µM [5]: 100%; EC50 [3]: > 50 µM
Cc1ccc(/C=C/C=N/N2CCN(C/C=C/c3ccccc3)CC2)o1 [compound 903] | > 50 µM | 75% |  | > 50 µM | % of Mortality AIT [4]: 10 ± 1%
O=c1cc(O)n(Cc2ccccc2)c(=S)n1Cc1ccccc1 [compound 1088] |  |  |  |  | IC50 ([5]; read-out: IC50): > 50 µM
CN=C1C=CC(=C(c2ccc(N(C)C)cc2)c2ccc(N(C)C)cc2)C=C1 [compound 1386] |  |  | did not show reproducible acaricidal activity |  | IC50 ([5]; read-out: IC50): < 10 µM; inhibition at 10 µM [5]: 100%
C(=C\c1ccco1)/C=N/N1CCN(C/C=C/c2ccccc2)CC1 [compound 912] | > 50 µM | 52% |  | > 50 µM | % of Mortality AIT [4]: 30 ± 8%
COc1cc(/C=C/C(=O)CC(=O)/C=C/c2ccc(O)c(OC)c2)ccc1O [compound 906, curcumin] | 24 ± 3 µM | 95% | acaricidal potential against R. microplus similar to Amitraz | < 25 µM | % of Mortality AIT [4]: 60 ± 8%
O=C(Oc1ccccc1)N1CCN(C(=O)Oc2ccccc2)CC1 [compound 715] |  |  |  |  | IC50 ([1]; 24 h): > 50 µM; inhibition at 100 µM ([1]; 24 h): 64%
O=C1C(Cl)=C(Oc2cccc3ccccc23)C(=O)c2ccccc21 [compound 1408] |  |  |  |  | IC50 ([5]; read-out: IC50): > 50 µM; inhibition at 100 µM [5]: 72%
FC(F)(F)C1=CSC(Nc2ccccc2)N1Cc1ccco1 (centres unmarked) [compound 1385] |  |  | did not show reproducible acaricidal activity |  | IC50 ([5]; read-out: IC50): < 10 µM; inhibition at 10 µM [5]: 89%; EC50 [3]: > 50 µM
COc1ccc(/C=C2\CCCC3C2=NN(c2ccccn2)C3c2ccc(OC)cc2)cc1 (centres unmarked) [Dm97] |  |  |  |  | inhibition at 100 µM [5]: 0%
C=CCn1c(-c2ccc(Cl)cc2)cs/c1=N/N=C/c1cccs1 [compound 133] | > 50 µM | 71% |  | > 50 µM | 
O=C(N/N=C/C=C/c1ccco1)c1cnn(-c2ccccc2)c1 [compound 1366] |  |  |  |  | inhibition at 100 µM [5]: 38%
CC(/C=N/NC(=[Se])NCCN1CCOCC1)=C\c1ccco1 [compound 1378] |  |  |  |  | IC50 ([5]; IC50 (µM)): 30 µM; inhibition at 100 µM [5]: 77%; inhibition at 10 µM [6]: 0%
[O-][n+]1c2ccc(O)cc2[n+]([O-])c2cc(Cl)c(Cl)cc21 [compound 183] |  | 62% |  | < 25 µM | 
